The results in this text go back to publication PMC6073232 (International Journal of Molecular Sciences, 2018).

Assay [1] addresses T1, TRESK (K2P18.1) (Mus musculus, UniProt Q6VV64).
T1 construct: gene Kcnk18; mouse TRESK (NM_207261) in HEK-293 cells
T1 sequence (Q6VV64 1-394): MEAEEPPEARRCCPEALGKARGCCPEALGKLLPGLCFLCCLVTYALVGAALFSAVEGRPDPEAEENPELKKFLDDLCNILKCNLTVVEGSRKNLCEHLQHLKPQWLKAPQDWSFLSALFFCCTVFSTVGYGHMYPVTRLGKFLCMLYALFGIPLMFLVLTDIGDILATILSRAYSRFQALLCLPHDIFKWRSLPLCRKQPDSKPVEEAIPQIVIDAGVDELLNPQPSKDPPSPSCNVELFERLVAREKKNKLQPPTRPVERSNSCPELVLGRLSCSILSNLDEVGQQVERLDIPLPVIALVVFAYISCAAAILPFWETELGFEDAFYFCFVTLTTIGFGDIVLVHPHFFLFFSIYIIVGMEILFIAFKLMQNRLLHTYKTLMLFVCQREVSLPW
The assay can be described thus: whole-cell patch clamp, % inhibition at […]. The assay is classed as cell-based. (In patch-clamp work, channel activity is measured electrically.)

Assay [2] has as its target T1, TRESK (K2P18.1). The assay is described as follows: whole-cell patch clamp (abstract prints IC50 […]). The class given is cell-based.

The inhibition is how much of the control response was suppressed. A lower inhibition goes with a response near the control. As usually defined, the IC50 is the concentration that inhibits the measured activity by half. Low readings indicate greater potency in that assay, high ones weaker potency in that assay.

Molecule `COc1ccc(CCN(C)CCCC(C#N)(c2cc(OC)c(OC)c(OC)c2)C(C)C)cc1OC` (centres unmarked) [D600] showed an inhibition at 20 µM at TRESK (K2P18.1) [1] of 45 ± 6%. On to `COC(=O)C1=C(C)NC(C)=C(C(=O)OC)C1c1ccccc1[N+](=O)[O-]` [nifedipine], for which the midpoint of inhibition at TRESK (K2P18.1) [2], the IC50, lay at 63.8 µM.
